Assay results reported in patent US12178825B2, “Method and compositions for forming a copper-containing complex and uses thereof” (COLD SPRING HARBOR LABORATORY, priority 2017, dated 2024).
“Also recorded” adds a separate entry of the source. One block for each compound: values may come before it.

What was measured:
[1] = test system: SUM159; assay: Cell survival; format: cell-based
Description: (§1) The MTT assay was used to evaluate cell survival in the absence and presence of different compounds. The thiazolyl blue tetrazolium bromide (MTT) was dissolved in phosphate buffered saline (PBS) at a concentration of 5 mg/ml, filtered, and stored at 4° C. About 10,000 cells were seeded into a 96-well plate and cultured in growth medium containing serum. After 24 hours, cells were treated with the indicated concentrations of DPM-1001 or DPM-1003 (0-100 uM) for 2 hrs. Following which 20 μl MTT was added into each well. An ELISA plate reader (Biotek, Winooski, Vermont, USA) was used to measure the optical density at 490 nm.

[2] = test system: MCF-7; assay: Cell survival; format: cell-based
Description: as §1

[3] = test system: HCC70 cells; assay: Cell survival; format: cell-based
Description: as §1

[4] = test system: SUM149 cells; assay: Cell survival; format: cell-based
Description: as §1

[5] = test system: MDA-MB-468 cells; assay: Cell survival; format: cell-based
Description: as §1

[6] = test system: MDA-MB-231 cells; assay: Cell survival; format: cell-based
Description: as §1
MDA-MB-231 cells (1×10^5) were seeded in 6 cm plates in growth medium. The cells were untreated or treated with DPM-1001 (0.5, 1, 2 and 5 μM), DPM-1003 (0.5, 1, 2 and 5 μM) or TTM (25, 50, 100 μM) for 1 h. Following which, media was gently aspirated and cells were washed with PBS. To each plate 0.5 ml of crystal violet (0.5%) was added and incubated in dark for 10 minutes at room temperature. The staining solution was removed and plates were washed with PBS (three times). The cells stained with the dye were imaged.

[7] = test system: AZD6244-insensitive cells; assay: Immunoblot of phospho-MEK and phospho-Erk; format: cell-based; conditions: AZD6244-insensitive (resistant) cells
Text: (§2) Equal quantities of lysates were isolated from indicated cell lines and then resolved by SDS-PAGE and immunoblotted with one of the following primary antibodies: mouse anti-MEK1/2, rabbit anti-p-PAK1, rabbit anti-PAK1, rabbit anti-ERK1/2, rabbit anti-phospho(Ser 217/221)-MEK1/2, rabbit anti-phospho(Thr 202/Tyr 204)-ERK1/2, rabbit anti-phospho (Ser 338)-c-RAF, rabbit anti-RAF, rabbit anti-phospho (Ser 112)-BAD and rabbit anti-BAD (Cell Signaling Technology), mouse anti-β-actin (Sigma), followed by detection with one of the following horseradish peroxidase-conjugated secondary antibodies: goat anti-rabbit IgG, goat anti-mouse IgG (Invitrogen), mouse anti-rabbit light-chain-specific IgG (Jackson ImmunoResearch Laboratories) using enhanced chemiluminescence (ECL; GE Healthcare) or SuperSignal West Femto Chemiluminescent substrate (Pierce) detection reagents.

[8] = test system: AZD6244-sensitive cells; assay: Immunoblot of phospho-MEK and phospho-Erk; format: cell-based; conditions: 1-2 μM AZD6244
Text: as §2

[9] = ESI-MS analysis of complex formation with copper salts; format: binding; conditions: for Percentage (binding percentage): DPM-1013:Cu = 1:8
Description: Eight equivalents of M(NO3)2·xH2O or MSO4·xH2O (M=Cu, Zn) were reacted with 1 eq. of DPM-1001 (1 mM in H2O). The reaction solutions were stirred at RT, 40° C. and 80° C. for 2 h. Mass spectra were recorded on a Bruker Esquire 6000 HCT quadrupole ion trap instrument (Bruker Daltonik GmbH, Leipzig, Germany), equipped with an electrospray ionization (ESI) source. Generation of the molecular formula of the DPM-1001/Cu(II) species and the comparison between the theoretical (simulated) and the measured isotopic patterns was performed using the DataAnalysis 4.0 software (Bruker).
(§3) Eight equivalents of M(NO3)2·xH2O or MSO4·xH2O were reacted with 1 eq. of DPM-1001, DPM-1003 or analog 2 (1 mM in H2O). The reaction solutions were stirred at RT, 40° C. and 80° C. for 2 h. Each sample was diluted 5-fold in 50% methanol, 0.1% formic acid and loaded into a 500 μL syringe. A Thermo Vantage triple quadrupole mass spectrometer (Thermo Scientific), equipped with an HESI spray source was coupled to an Accela HPLC system (Thermo Scientific). Mobile phase A consisted of 0.1% formic acid and mobile phase B consisted of 0.1% formic acid in methanol. Isocratic flow was set to 50% B at 200 μL/min. 200 μl samples were injected into the LC flow line via syringe pump at 10 μL/min and electrosprayed into the Vantage triple quadrupole mass spectrometer. A spray voltage of 4.3 kV was used along with a capillary temperature of 350° C. Each full MS scan was 0.5 s and data were collected with a scan range of 200 m/z to 900 m/z over 1 min.
Binding of compounds of Formula I other than DPM-1001 was also confirmed. In an ESI-MS test, compound DPM-1013 as hydrochloride salt was dissolved in distilled water at a concentration of 2 mM freshly before testing. It was then mixed with an equal volume copper sulfate (16 mM) or copper chloride solution (16 mM) for 2 h, rendering a concentration of DPM-1013 at 1 mM and the copper salt 8 mM. The mixture was then further diluted 100-fold before injection into an ESI-MS, making a final concentration of DPM-1013 of 10 μM and Cu 80 μM in the test.
Binding percentage=peak intensity of all DPM-1013-Cu complex/(peak intensity of all DPM-1013-Cu complex+peak intensity of free DPM-1013).

[10] = ESI-MS analysis of complex formation with a series of other metal ions; format: binding; conditions: panel of metals
Description: as §3

[11] = test system: TX mice; assay: Tissue and fecal copper levels (ICP-MS, rhodanine staining); format: in vivo, mouse
Description: C3He-Atp7b^tx-j were obtained from the Jackson laboratory. All animal experiments were performed according to protocols approved by the Institutional Animal Use and Care Committee of Cold Spring Harbor laboratory. Mice were injected intraperitoneally (i.p.) with vehicle, or administered DPM-1001 intraperitoneally or orally at 5 mg/kg once every third day, for over a year. At the end of the study animals were euthanized and tissue samples were removed for biochemical studies.
Tissue samples from wild-type or TX mice treated with saline, DPM-1001 or tetrathiomolybdate was washed three times with PBS containing 1 mM EDTA (to remove nonspecifically bound copper). Then, 215 μl of concentrated nitric acid (BDH Aristar Ultra) was added to each sample and incubated overnight. Samples were boiled at 95° C. for 1 h. and approximately 150 μl of each sample was further diluted in 2 ml 2% nitric acid (made freshly from concentrated nitric acid and Milli-Q water) Samples were analyzed on a Thermo Fisher iCAP Qc ICP mass spectrometer in kinetic energy discrimination (KED) mode against a calibration curve of known copper and phosphorus concentrations, with Ga (20 μg/l, Inorganic Ventures) as an internal standard, Each experiment was carried out twice and each condition was repeated in at least triplicate.
Liver tissues from wild-type and TX mice from untreated and DPM-1001-treated mice were sectioned and stained with H&E or rhodanine. Whole-slide, digitized images of H&E-stained tissue were captured using the Aperio ScanScope XT automated scanning system (Vista, CA). Image J software was used to quantitate rhodanine staining.

[12] = biological target: T1, PTP1B1-321 (Homo sapiens, UniProt P18031); assay: PTP1B phosphatase activity assay, short form; format: biochemical; conditions: enzyme-inhibitor complex diluted, activity recovery monitored
T1 construct: C-terminally truncated PTP1B (1-321); made in house; host or cells: Escherichia coli BL21 (DE3)-RIL
T1 sequence (P18031 1-321): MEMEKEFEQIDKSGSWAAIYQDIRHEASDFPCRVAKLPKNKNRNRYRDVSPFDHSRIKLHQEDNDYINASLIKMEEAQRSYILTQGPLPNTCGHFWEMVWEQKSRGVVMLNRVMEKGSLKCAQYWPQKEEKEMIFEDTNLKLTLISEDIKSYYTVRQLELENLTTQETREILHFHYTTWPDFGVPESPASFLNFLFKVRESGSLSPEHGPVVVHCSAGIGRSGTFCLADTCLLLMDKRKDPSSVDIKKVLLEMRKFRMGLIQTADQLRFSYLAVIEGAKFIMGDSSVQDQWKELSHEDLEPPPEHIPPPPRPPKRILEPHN
Description: (§4) All common reagents were obtained from Thermo Fisher Scientific (Waltham, MA) or Sigma-Aldrich (St. Louis, MO). Difluoro-4-methylumbelliferyl phosphate (DiFMUP) was obtained from Invitrogen (cat #D22065). Solid black 384-well plates (cat #3573) for phosphatase assays were from Corning Incorporated (Corning, NY).
(§5) Wild-type PTP1B containing a His-tag was expressed in Escherichia coli BL21 (DE3)-RIL using LB. Cells were resuspended in lysis buffer (50 mM Hepes pH 7.2, 150 mM NaCl, 10 mM imidazole, 2 mM TCEP) with cOmplete EDTA-free Protease Inhibitor Cocktail (Roche), and then lysed using a sonicator at 4° C. Lysates were clarified by centrifugation. Initial protein purification was by gravity flow, nickel column chromatography. Protein was used immediately or stored at −80° C. in 50 mM HEPES pH 7.4, 100 mM NaCl, 2 mM dithiothreitol and 25% glycerol.

[13] = biological target: T2, PTP1B1-405 (Homo sapiens, UniProt P18031); assay: PTP1B phosphatase activity assay, DiFMUP substrate, long form; format: biochemical
T2 construct: PTP1B1-405 (the long form of PTP1B which contains the extended C-terminal segment); made in house; host or cells: Escherichia coli BL21 (DE3)-RIL
T2 sequence (P18031 1-405): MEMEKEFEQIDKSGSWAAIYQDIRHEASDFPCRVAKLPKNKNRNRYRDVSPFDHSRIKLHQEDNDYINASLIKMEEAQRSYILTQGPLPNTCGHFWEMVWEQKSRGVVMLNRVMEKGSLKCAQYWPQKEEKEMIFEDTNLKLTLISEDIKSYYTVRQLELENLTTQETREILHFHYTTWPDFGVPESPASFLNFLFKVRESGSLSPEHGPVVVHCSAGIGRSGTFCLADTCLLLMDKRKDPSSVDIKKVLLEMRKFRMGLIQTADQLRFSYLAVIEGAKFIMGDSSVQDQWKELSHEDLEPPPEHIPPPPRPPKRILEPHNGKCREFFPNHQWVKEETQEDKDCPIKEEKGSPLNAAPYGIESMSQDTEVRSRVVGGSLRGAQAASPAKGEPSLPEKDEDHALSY
Description: as §4, §5

[14] = biological target: PTP1B-L192A/S372P (Homo sapiens, UniProt P18031, L192A/S372P); assay: Phosphatase assay with MSI-1436-resistant mutant; format: biochemical
Sequence of PTP1B-L192A/S372P (P18031 whole entry L192A/S372P): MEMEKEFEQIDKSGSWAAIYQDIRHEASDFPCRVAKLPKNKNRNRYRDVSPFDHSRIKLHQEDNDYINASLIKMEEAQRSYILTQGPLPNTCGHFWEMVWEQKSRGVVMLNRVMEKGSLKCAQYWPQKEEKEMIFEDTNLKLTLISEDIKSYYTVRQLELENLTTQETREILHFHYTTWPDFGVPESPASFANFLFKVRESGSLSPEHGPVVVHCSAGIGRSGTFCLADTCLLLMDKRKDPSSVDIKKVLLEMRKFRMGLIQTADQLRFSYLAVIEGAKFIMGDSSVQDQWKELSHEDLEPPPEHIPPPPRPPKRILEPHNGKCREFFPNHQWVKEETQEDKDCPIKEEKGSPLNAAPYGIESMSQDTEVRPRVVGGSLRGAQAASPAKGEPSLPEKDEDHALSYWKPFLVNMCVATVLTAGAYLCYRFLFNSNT
Text: as §4

Structure (SMILES): Cn1cnc2c(F)c(Nc3ccc(Br)cc3Cl)c(C(=O)NOCCO)cc21 [AZD6244, 6-(4-bromo-2-chloroanilino)-7-fluoro-N-(2-hydroxyethoxy)-3-methylbenzimidazole-5-carboxamide]
- survival of SUM159 cells [1]: inhibited cell survival
- survival of MCF-7 cells [2]: inhibited cell survival
- survival of HCC70 cells [3]: without effect on survival
- survival of SUM149 cells [4]: without effect on survival
- survival of MDA-MB-468 cells [5]: without effect on survival
- survival of MDA-MB-231 cells [6]: inhibited cell survival
- phospho-MEK and phospho-Erk [7]: without effect
- phospho-MEK and phospho-Erk [8]: reduced phospho-MEK and phospho-Erk

- Percentage (binding percentage) ([9]; CuCl2): 74.29%
- Percentage (binding percentage) ([9]; CuSO4): 82.23%
Structure (SMILES): COC(=O)CC[C@@H](C)[C@H]1CC[C@H]2[C@@H]3[C@H](O)C[C@@H]4C[C@@H](NCCCCNCc5ccccn5)CC[C@]4(C)[C@H]3CC[C@]12C [DPM-1013]
- complex formation with copper [9]: formed complexes with free Cu, CuSO4; also recorded: formed complexes with free Cu, CuCl2

Structure (SMILES): c1ccc(CNCCCCNCc2ccccn2)nc1 [Analog 2, N^1,N^4-bis(pyridin-2-ylmethyl)butane-1,4-diamine]
- complex formation with copper [9]: Cu(II)-bound form
- complex formation with other metals [10]: bound to all the metals tested

Structure (SMILES): [SH-].[SH-].[S]=[Mo]=[S] [tetrathiomolybdate, reference compound]
- copper levels in feces ([11]; TX mice): only a small increase
- copper levels in liver and brain ([11]; TX mice, ICP-MS): prevented accumulation of copper in liver and brain
- copper levels in kidney ([11]; wild-type and TX mice, ICP-MS): caused accumulation of copper in the kidney; also recorded: dramatically elevated copper levels in the kidney

- reversibility of inhibition of PTP1B1-321 [12]: reversible inhibitor
- reversibility of inhibition of PTP1B1-405 ([13]; enzyme-inhibitor complex diluted, activity recovery monitored): reversible inhibitor
- time until PTP1B activity recovers ([13]; sample diluted 100-fold): ≤ 60 min
- sensitivity of PTP1B-L192A/S372P to inhibitor [14]: insensitive
Structure (SMILES): CC(C)[C@@H](CC[C@@H](C)[C@H]1CC[C@H]2[C@@H]3[C@H](O)C[C@H]4C[C@@H](NCCCNCCCCNCCCN)CC[C@]4(C)[C@H]3CC[C@]12C)OS(=O)(=O)O [MSI-1436, 3-N-1(spermine)-7,24-dihydroxy-5-cholestane 24-sulfate, reference compound]
- complex formation with copper [9]: does not form a complex with copper
